PubChem BioAssay (NCI)
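Following 48 hours of exposure in 96-well plates, responses at five concentrations were used to interpolate endpoints linearly. The concentration for 50% growth inhibition is given as GI50. TGI is the concentration that stops growth completely.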

Tests used:
Assay in all cases: inhibition of tumour cell growth, NCI panel, 48 h
[1] = test system: 786-0 renal
[2] = test system: A498 renal
[3] = test system: A549 NSCLC
[4] = test system: ACHN renal
[5] = test system: BT-549 breast
[6] = test system: CAKI-1 renal
[7] = test system: CCRF-CEM leukemia
[8] = test system: COLO 205 colon
[9] = test system: DU-145 prostate
[10] = test system: EKVX NSCLC
[11] = test system: HCC-2998 colon
[12] = test system: HCT-116 colon
[13] = test system: HCT-15 colon
[14] = test system: HL-60(TB) leukemia
[15] = test system: HOP-62 NSCLC
[16] = test system: HOP-92 NSCLC
[17] = test system: HS 578T breast
[18] = test system: HT29 colon
[19] = test system: IGROV1 ovarian
[20] = test system: K-562 leukemia
[21] = test system: KM12 colon
[22] = test system: LOX IMVI melanoma
[23] = test system: M14 melanoma
[24] = test system: MALME-3M melanoma
[25] = test system: MCF7 breast
[26] = test system: MDA-MB-231 breast
[27] = test system: MDA-MB-435
[28] = test system: MOLT-4 leukemia
[29] = test system: NCI-H23 lung
[30] = test system: NCI-H460 lung
[31] = test system: NCI-H522 lung
[32] = test system: NCI/ADR-RES ovarian
[33] = test system: OVCAR-3 ovarian
[34] = test system: OVCAR-4 ovarian
[35] = test system: OVCAR-5 ovarian
[36] = test system: OVCAR-8 ovarian
[37] = test system: PC-3 prostate
[38] = test system: RPMI-8226 leukemia
[39] = test system: RXF 393 renal
[40] = test system: SF-268 CNS
[41] = test system: SF-295 CNS
[42] = test system: SF-539 CNS
[43] = test system: SK-MEL-2 melanoma
[44] = test system: SK-MEL-28 melanoma
[45] = test system: SK-MEL-5 melanoma
[46] = test system: SK-OV-3 ovarian
[47] = test system: SN12C renal
[48] = test system: SNB-19 CNS
[49] = test system: SNB-75 CNS
[50] = test system: SR leukemia
[51] = test system: SW-620 colon
[52] = test system: T-47D breast
[53] = test system: TK-10 renal
[54] = test system: U251 CNS
[55] = test system: UACC-62 melanoma
[56] = test system: UO-31 renal

With `C=C1C[C@H](O)[C@H](Br)C(C)(C)[C@@]12CCC(C)=C(Cl)C2` the GI50 [1] was 0.57 µM, the TGI [1] was 11.7 µM and the GI50 [2] was 0.838 µM. The TGI [2] was 4.04 µM, the GI50 [3] was 0.261 µM and the TGI [3] was 1.96 µM. For the same molecule, the GI50 [4] was 0.369 µM, the TGI [4] was 10.7 µM and the GI50 [5] was 0.248 µM. For the same molecule, the TGI [5] was 2.82 µM, the GI50 [6] was 0.133 µM and the TGI [6] was 13.2 µM. For the same molecule, the GI50 [7] was 0.445 µM, the TGI [7] was 7.92 µM and the GI50 [8] was 0.157 µM. It also gave a TGI [8] of 0.51 µM, a GI50 [9] of 0.276 µM and a TGI [9] of 3.25 µM. The GI50 [10] was 0.0371 µM, the TGI [10] was 1.37 µM and the GI50 [11] was 0.568 µM. It also gave a TGI [11] of 14 µM, a GI50 [12] of 0.32 µM and a GI50 [13] of 0.269 µM. For the same molecule, the TGI [13] was 1.27 µM, the GI50 [14] was 0.206 µM and the TGI [14] was 0.761 µM. It also gave a GI50 [15] of 0.377 µM, a TGI [15] of 4.92 µM and a GI50 [16] of 0.208 µM. The TGI [16] was 0.802 µM, the GI50 [17] was 0.289 µM and the TGI [17] was 2.98 µM. The GI50 [18] was 0.26 µM, the TGI [18] was 1.45 µM and the GI50 [19] was 0.25 µM. It also gave a TGI [19] of 11.7 µM, a GI50 [20] of 0.443 µM and a TGI [20] of 10.4 µM. The GI50 [21] was 0.311 µM, the TGI [21] was 2.11 µM and the GI50 [22] was 0.483 µM. The TGI [22] was 2.07 µM, the GI50 [23] was 0.314 µM and the TGI [23] was 1.66 µM. The GI50 [24] was 0.31 µM, the TGI [24] was 2.3 µM and the GI50 [25] was 0.275 µM. The TGI [25] was 1.97 µM, the GI50 [26] was 0.345 µM and the TGI [26] was 2.33 µM. For the same molecule, the GI50 [27] was 0.327 µM, the TGI [27] was 1.72 µM and the GI50 [28] was 0.229 µM. It also gave a TGI [28] of 0.795 µM, a GI50 [29] of 0.173 µM and a TGI [29] of 2.99 µM. For the same molecule, the GI50 [30] was 0.263 µM, the TGI [30] was 1.61 µM and the GI50 [31] was 0.416 µM. For the same molecule, the TGI [31] was 3.46 µM, the GI50 [32] was 0.247 µM and the TGI [32] was 11.2 µM. The GI50 [33] was 0.509 µM, the TGI [33] was 4.13 µM and the GI50 [34] was 0.155 µM. It also gave a TGI [34] of 7.81 µM, a GI50 [35] of 0.342 µM and a TGI [35] of 8.87 µM. The GI50 [36] was 0.416 µM, the TGI [36] was 15.3 µM and the GI50 [37] was 0.0573 µM. The TGI [37] was 1.87 µM, the GI50 [38] was 0.229 µM and the TGI [38] was 1.25 µM. For the same molecule, the GI50 [39] was 0.35 µM, the TGI [39] was 4.12 µM and the GI50 [40] was 0.396 µM. For the same molecule, the TGI [40] was 6.25 µM, the GI50 [41] was 0.105 µM and the TGI [41] was 1.69 µM. The GI50 [42] was 0.445 µM, the TGI [42] was 11.3 µM and the GI50 [43] was 0.422 µM. For the same molecule, the TGI [43] was 2.61 µM, the GI50 [44] was 0.458 µM and the TGI [44] was 2.78 µM. For the same molecule, the GI50 [45] was 0.253 µM, the TGI [45] was 0.866 µM and the GI50 [46] was 0.297 µM. It also gave a TGI [46] of 6.41 µM, a GI50 [47] of 0.416 µM and a TGI [47] of 6.61 µM. The GI50 [48] was 0.683 µM, the TGI [48] was 14.1 µM and the GI50 [49] was 0.16 µM. The TGI [49] was 0.785 µM, the GI50 [50] was 0.237 µM and the TGI [50] was 11.1 µM. It also gave a GI50 [51] of 0.625 µM, a TGI [51] of 11.3 µM and a GI50 [52] of 0.15 µM. It also gave a TGI [52] of 11.3 µM, a GI50 [53] of 0.373 µM and a TGI [53] of 2.89 µM. For the same molecule, the GI50 [54] was 0.367 µM, the TGI [54] was 12.2 µM and the GI50 [55] was 0.675 µM. For the same molecule, the TGI [55] was 3.15 µM, the GI50 [56] was 0.612 µM and the TGI [56] was 3.25 µM.
